Measured values as given in ChEMBL document CHEMBL3867422, “Design and synthesis of pyrimidinyl acyl thioureas as novel Hsp90 inhibitors in invasive ductal breast cancer and its bone metastasis” (Eur J Med Chem, 2016).

Columns and labels:
[1] = biological target: Heat shock protein HSP 90-alpha (Homo sapiens) (UniProt P07900); test: Inhibition of human His-tagged Hsp90 alpha N-terminal domain ATPase activity expressed in Escherichia coli BL21(DE3) at 6.25 uM assessed as ADP formation by pyruvate kinase/lactate dehydrogenase-coupled assay
[2] = biological target: Heat shock protein HSP 90-alpha (Homo sapiens) (UniProt P07900); test: Inhibition of human His-tagged Hsp90 alpha N-terminal domain ATPase activity expressed in Escherichia coli BL21(DE3) at 100 uM assessed as ADP formation by pyruvate kinase/lactate dehydrogenase-coupled assay
[3] = biological target: Heat shock protein HSP 90-alpha (Homo sapiens) (UniProt P07900); test: Inhibition of human His-tagged Hsp90 alpha N-terminal domain ATPase activity expressed in Escherichia coli BL21(DE3) at 12.5 uM assessed as ADP formation by pyruvate kinase/lactate dehydrogenase-coupled assay
[4] = biological target: Heat shock protein HSP 90-alpha (Homo sapiens) (UniProt P07900); test: Inhibition of human His-tagged Hsp90 alpha N-terminal domain ATPase activity expressed in Escherichia coli BL21(DE3) at 25 uM assessed as ADP formation by pyruvate kinase/lactate dehydrogenase-coupled assay
[5] = biological target: Heat shock protein HSP 90-alpha (Homo sapiens) (UniProt P07900); test: Inhibition of human His-tagged Hsp90 alpha N-terminal domain ATPase activity expressed in Escherichia coli BL21(DE3) at 50 uM assessed as ADP formation by pyruvate kinase/lactate dehydrogenase-coupled assay
[6] = biological target: Heat shock protein HSP 90-alpha (Homo sapiens) (UniProt P07900); test: Inhibition of human His-tagged Hsp90 alpha N-terminal domain ATPase activity expressed in Escherichia coli BL21(DE3) at 3.125 uM assessed as ADP formation by pyruvate kinase/lactate dehydrogenase-coupled assay

| SMILES | Activity [1] [nmol/min/mg] | Activity [2] [nmol/min/mg] | Activity [3] [nmol/min/mg] | Activity [4] [nmol/min/mg] | Activity [5] [nmol/min/mg] | Activity [6] [nmol/min/mg] |
| --- | --- | --- | --- | --- | --- | --- |
| CCn1cc(C(=O)NC(=S)Nc2ccc(C)cc2)c(-c2ccccc2)nc1=O | 80.5 | 33.1 | 72.9 | 55 | 43.4 | 90.2 |
| CCn1cc(C(=O)NC(=S)Nc2ccc(OC)cc2)c(-c2ccccc2)nc1=O | 59.4 | 11.4 | 37.7 | 28.5 | 16.2 | 81.1 |
| CCn1cc(C(=O)NC(=S)Nc2ccccc2C)c(-c2ccccc2)nc1=O | 85.7 | 28.9 | 70.9 | 50.1 | 38 | 93.5 |
| CCn1cc(C(=O)NC(=S)NCc2ccccc2)c(-c2ccccc2)nc1=O | 80 | 35.9 | 75.1 | 61.2 | 50.2 | 90.2 |
| CCn1cc(C(=O)NC(=S)Nc2ccccc2)c(-c2ccccc2)nc1=O | 70.3 | 26.1 | 60.8 | 40.4 | 32 | 85.3 |
| CCn1cc(C(=O)NC(=S)Nc2cccc3ccccc23)c(-c2ccccc2)nc1=O | 49.5 | 8.19 | 36.1 | 24.4 | 13.2 | 75.5 |

Continued, values first:

| Activity [1] [nmol/min/mg] | Activity [2] [nmol/min/mg] | Activity [3] [nmol/min/mg] | Activity [4] [nmol/min/mg] | Activity [5] [nmol/min/mg] | Activity [6] [nmol/min/mg] | SMILES |
| --- | --- | --- | --- | --- | --- | --- |
| 63.6 | 13.5 | 39.7 | 26.6 | 16.4 | 80.1 | CCn1cc(C(=O)NC(=S)Nc2ccc(Br)cc2)c(-c2ccccc2)nc1=O |
| 83.5 | 49.8 | 74.1 | 70.4 | 61 | 88.8 | CCn1cc(C(=O)NC(=S)Nc2ccc(Cl)cc2)c(-c2ccccc2)nc1=O |
| 87.1 | 37.5 | 73.4 | 64 | 51.1 | 93.5 | CCn1cc(C(=O)NC(=S)Nc2ccc(C(N)=O)cc2)c(-c2ccccc2)nc1=O |
| 84.1 | 27.6 | 72 | 53.1 | 38.2 | 92.6 | CCn1cc(C(=O)NC(=S)Nc2ccc(F)cc2)c(-c2ccccc2)nc1=O |
